Assay: xn = mol fraction of the nth substance listed

NC=O + CCO
Conditions | viscosity [mPa·s]
293.15 K, 101 kPa, x1 = 0.0698 | 1.251
298.15 K, 100 kPa, x1 = 0.08099 | 1.17
298.15 K, 100 kPa, x1 = 0.141 | 1.24
298.15 K, 100 kPa, x1 = 0.1644 | 1.27
298.15 K, 100 kPa, x1 = 0.2196 | 1.37
298.15 K, 100 kPa, x1 = 0.25 | 1.43
298.15 K, 100 kPa, x1 = 0.2924 | 1.5
298.15 K, 100 kPa, x1 = 0.3698 | 1.66
298.15 K, 100 kPa, x1 = 0.4031 | 1.73
298.15 K, 100 kPa, x1 = 0.4124 | 1.74
298.15 K, 100 kPa, x1 = 0.5124 | 1.98
298.15 K, 100 kPa, x1 = 0.5644 | 2.11
298.15 K, 100 kPa, x1 = 0.6278 | 2.29
298.15 K, 100 kPa, x1 = 0.7077 | 2.5
298.15 K, 100 kPa, x1 = 0.7726 | 2.67
298.15 K, 100 kPa, x1 = 0.8608 | 2.91
298.15 K, 100 kPa, x1 = 0.9558 | 3.19
298.15 K, 101 kPa, x1 = 0.0698 | 1.152
298.15 K, 101 kPa, x1 = 0.1005 | 1.229
298.15 K, 101 kPa, x1 = 0.1991 | 1.376
298.15 K, 101 kPa, x1 = 0.3014 | 1.563
298.15 K, 101 kPa, x1 = 0.4071 | 1.816
298.15 K, 101 kPa, x1 = 0.4991 | 2.01
298.15 K, 101 kPa, x1 = 0.6093 | 2.259
298.15 K, 101 kPa, x1 = 0.7024 | 2.515
298.15 K, 101 kPa, x1 = 0.8108 | 2.782
298.15 K, 101 kPa, x1 = 0.9 | 3.054
303.15 K, 101 kPa, x1 = 0.0698 | 1.043
303.15 K, 101.3 kPa, x1 = 0.0716 | 0.97
303.15 K, 101.3 kPa, x1 = 0.1365 | 1.03
303.15 K, 101.3 kPa, x1 = 0.2357 | 1.1
303.15 K, 101.3 kPa, x1 = 0.3142 | 1.3
303.15 K, 101.3 kPa, x1 = 0.3842 | 1.4
303.15 K, 101.3 kPa, x1 = 0.4597 | 1.5
303.15 K, 101.3 kPa, x1 = 0.5389 | 1.6
303.15 K, 101.3 kPa, x1 = 0.609 | 1.8
303.15 K, 101.3 kPa, x1 = 0.6872 | 1.9
303.15 K, 101.3 kPa, x1 = 0.7741 | 2.1
303.15 K, 101.3 kPa, x1 = 0.7928 | 2.2
303.15 K, 101.3 kPa, x1 = 0.926 | 2.6
308.15 K, 101 kPa, x1 = 0.0698 | 0.9456
308.15 K, 101.3 kPa, x1 = 0.0716 | 0.89
308.15 K, 101.3 kPa, x1 = 0.1365 | 0.93
308.15 K, 101.3 kPa, x1 = 0.2357 | 1.05
308.15 K, 101.3 kPa, x1 = 0.3142 | 1.1
308.15 K, 101.3 kPa, x1 = 0.3842 | 1.2
308.15 K, 101.3 kPa, x1 = 0.4597 | 1.3
308.15 K, 101.3 kPa, x1 = 0.5389 | 1.5
308.15 K, 101.3 kPa, x1 = 0.609 | 1.5
308.15 K, 101.3 kPa, x1 = 0.6872 | 1.7
308.15 K, 101.3 kPa, x1 = 0.7741 | 1.8
308.15 K, 101.3 kPa, x1 = 0.7928 | 1.9
308.15 K, 101.3 kPa, x1 = 0.926 | 2.3
313.15 K, 101 kPa, x1 = 0.0698 | 0.8712
313.15 K, 101 kPa, x1 = 0.1005 | 0.916
313.15 K, 101 kPa, x1 = 0.1991 | 1.016
313.15 K, 101 kPa, x1 = 0.3014 | 1.145
313.15 K, 101 kPa, x1 = 0.4071 | 1.319
313.15 K, 101 kPa, x1 = 0.4991 | 1.465
313.15 K, 101 kPa, x1 = 0.6093 | 1.622
313.15 K, 101 kPa, x1 = 0.7024 | 1.8
313.15 K, 101 kPa, x1 = 0.8108 | 1.986
313.15 K, 101 kPa, x1 = 0.9 | 2.174
313.15 K, 101.3 kPa, x1 = 0.0716 | 0.8
313.15 K, 101.3 kPa, x1 = 0.1365 | 0.85
313.15 K, 101.3 kPa, x1 = 0.2357 | 0.95
313.15 K, 101.3 kPa, x1 = 0.3142 | 1.04
313.15 K, 101.3 kPa, x1 = 0.3842 | 1.1
313.15 K, 101.3 kPa, x1 = 0.4597 | 1.2
313.15 K, 101.3 kPa, x1 = 0.5389 | 1.3
313.15 K, 101.3 kPa, x1 = 0.609 | 1.4
313.15 K, 101.3 kPa, x1 = 0.6872 | 1.5
313.15 K, 101.3 kPa, x1 = 0.7741 | 1.7
313.15 K, 101.3 kPa, x1 = 0.7928 | 1.7
313.15 K, 101.3 kPa, x1 = 0.926 | 2
318.15 K, 101 kPa, x1 = 0.0698 | 0.8052
318.15 K, 101.3 kPa, x1 = 0.0716 | 0.73
318.15 K, 101.3 kPa, x1 = 0.1365 | 0.77
318.15 K, 101.3 kPa, x1 = 0.2357 | 0.86
318.15 K, 101.3 kPa, x1 = 0.3142 | 0.94
318.15 K, 101.3 kPa, x1 = 0.3842 | 1.02
318.15 K, 101.3 kPa, x1 = 0.4597 | 1.1
318.15 K, 101.3 kPa, x1 = 0.5389 | 1.2
318.15 K, 101.3 kPa, x1 = 0.609 | 1.2
318.15 K, 101.3 kPa, x1 = 0.6872 | 1.3
318.15 K, 101.3 kPa, x1 = 0.7741 | 1.5
318.15 K, 101.3 kPa, x1 = 0.7928 | 1.5
318.15 K, 101.3 kPa, x1 = 0.926 | 1.8
323.15 K, 101.3 kPa, x1 = 0.0716 | 0.64
323.15 K, 101.3 kPa, x1 = 0.1365 | 0.68
323.15 K, 101.3 kPa, x1 = 0.2357 | 0.75
323.15 K, 101.3 kPa, x1 = 0.3142 | 0.83
323.15 K, 101.3 kPa, x1 = 0.3842 | 0.89
323.15 K, 101.3 kPa, x1 = 0.4597 | 0.93
323.15 K, 101.3 kPa, x1 = 0.5389 | 0.98
323.15 K, 101.3 kPa, x1 = 0.609 | 1.04
323.15 K, 101.3 kPa, x1 = 0.6872 | 1.1
323.15 K, 101.3 kPa, x1 = 0.7741 | 1.2
323.15 K, 101.3 kPa, x1 = 0.7928 | 1.2
323.15 K, 101.3 kPa, x1 = 0.926 | 1.5

NC=O + O
viscosity [mPa·s]
Conditions | 101 kPa | 101.33 kPa
293.15 K, x1 = 0.0753 | 1.098 | –
293.15 K, x1 = 0.1519 | 1.195 | –
293.15 K, x1 = 0.2309 | 1.318 | –
293.15 K, x1 = 0.2959 | 1.446 | –
293.15 K, x1 = 0.3852 | 1.603 | –
298.15 K, x1 = 0.00687 | 0.921 | –
298.15 K, x1 = 0.1 | 0.9871 | –
298.15 K, x1 = 0.1001 | 1.044 | –
298.15 K, x1 = 0.1998 | 1.161 | –
298.15 K, x1 = 0.2 | 1.121 | –
298.15 K, x1 = 0.212 | 1.182 | –
298.15 K, x1 = 0.3 | 1.262 | –
298.15 K, x1 = 0.3003 | 1.315 | –
298.15 K, x1 = 0.304 | 1.283 | –
298.15 K, x1 = 0.3989 | 1.463 | –
298.15 K, x1 = 0.4 | 1.43 | –
298.15 K, x1 = 0.4997 | 1.698 | –
298.15 K, x1 = 0.5 | 1.631 | –
298.15 K, x1 = 0.551 | 2.101 | –
298.15 K, x1 = 0.5997 | 1.927 | –
298.15 K, x1 = 0.6 | 1.868 | –
298.15 K, x1 = 0.6029 | 2.275 | –
298.15 K, x1 = 0.692 | 2.142 | –
298.15 K, x1 = 0.7 | 2.138 | –
298.15 K, x1 = 0.8 | 2.471 | –
298.15 K, x1 = 0.8004 | 2.508 | –
298.15 K, x1 = 0.9 | 2.881 | –
298.15 K, x1 = 0.9013 | 2.906 | –
303.15 K, x1 = 0.0964 | – | 0.8965
303.15 K, x1 = 0.1998 | – | 1.015
303.15 K, x1 = 0.2994 | – | 1.15
303.15 K, x1 = 0.3996 | – | 1.298
303.15 K, x1 = 0.4999 | – | 1.474
303.15 K, x1 = 0.5995 | – | 1.662
303.15 K, x1 = 0.6999 | – | 1.878
303.15 K, x1 = 0.8001 | – | 2.139
303.15 K, x1 = 0.9 | – | 2.432
308.15 K, x1 = 0.0964 | – | 0.8135
308.15 K, x1 = 0.1 | 0.8181 | –
308.15 K, x1 = 0.1998 | – | 0.9213
308.15 K, x1 = 0.2 | 0.9244 | –
308.15 K, x1 = 0.2994 | – | 1.047
308.15 K, x1 = 0.3 | 1.047 | –
308.15 K, x1 = 0.3996 | – | 1.182
308.15 K, x1 = 0.4 | 1.183 | –
308.15 K, x1 = 0.4999 | – | 1.34
308.15 K, x1 = 0.5 | 1.342 | –
308.15 K, x1 = 0.5995 | – | 1.506
308.15 K, x1 = 0.6 | 1.523 | –
308.15 K, x1 = 0.6999 | – | 1.697
308.15 K, x1 = 0.7 | 1.731 | –
308.15 K, x1 = 0.8 | 2.002 | –
308.15 K, x1 = 0.8001 | – | 1.926
308.15 K, x1 = 0.9 | 2.307 | 2.18
313.15 K, x1 = 0.0964 | – | 0.7424
313.15 K, x1 = 0.1001 | 0.734 | –
313.15 K, x1 = 0.1998 | 0.835 | 0.8455
313.15 K, x1 = 0.2994 | – | 0.9584
313.15 K, x1 = 0.3003 | 0.949 | –
313.15 K, x1 = 0.3989 | 1.091 | –
313.15 K, x1 = 0.3996 | – | 1.08
313.15 K, x1 = 0.4997 | 1.23 | –
313.15 K, x1 = 0.4999 | – | 1.221
313.15 K, x1 = 0.5995 | – | 1.373
313.15 K, x1 = 0.5997 | 1.402 | –
313.15 K, x1 = 0.692 | 1.545 | –
313.15 K, x1 = 0.6999 | – | 1.543
313.15 K, x1 = 0.8001 | – | 1.746
313.15 K, x1 = 0.8004 | 1.813 | –
313.15 K, x1 = 0.9 | – | 1.967
313.15 K, x1 = 0.9013 | 2.102 | –
318.15 K, x1 = 0.0964 | – | 0.6812
318.15 K, x1 = 0.1 | 0.6761 | –
318.15 K, x1 = 0.1998 | – | 0.7768
318.15 K, x1 = 0.2 | 0.7811 | –
318.15 K, x1 = 0.2994 | – | 0.8815
318.15 K, x1 = 0.3 | 0.8781 | –
318.15 K, x1 = 0.3996 | – | 0.993
318.15 K, x1 = 0.4 | 0.9948 | –
318.15 K, x1 = 0.4999 | – | 1.121
318.15 K, x1 = 0.5 | 1.12 | –
318.15 K, x1 = 0.5995 | – | 1.259
318.15 K, x1 = 0.6 | 1.259 | –
318.15 K, x1 = 0.6999 | – | 1.409
318.15 K, x1 = 0.7 | 1.42 | –
318.15 K, x1 = 0.8 | 1.604 | –
318.15 K, x1 = 0.8001 | – | 1.59
318.15 K, x1 = 0.9 | 1.812 | 1.788
323.15 K, x1 = 0.0964 | – | 0.6275
323.15 K, x1 = 0.1998 | – | 0.7165
323.15 K, x1 = 0.2994 | – | 0.8121
323.15 K, x1 = 0.3996 | – | 0.9187
323.15 K, x1 = 0.4999 | – | 1.032
323.15 K, x1 = 0.5995 | – | 1.158
323.15 K, x1 = 0.6999 | – | 1.292
323.15 K, x1 = 0.8001 | – | 1.457
323.15 K, x1 = 0.9 | – | 1.629
